Results as given in patent US5180742A, “Quinone derivatives, their production and use” (Takeda Chemical Industries, Ltd., priority 1984, dated 1993).

test system: PAF-induced bronchoconstriction; assay: Effect on PAF-induced bronchoconstriction in guinea pigs; type: in vivo; conditions: 0.31 mg/kg oral, one hour before PAF
Experimental: Platelet Activating Factor (PAF)-Induced Bronchoconstriction in Guinea Pigs
Experimental procedure in this experiment was the same as that in LTD4 -induced bronchoconstriction shown in Experimental example 7. PAF is an intraveneous dose of 1 μg/kg was used. Each specimen suspended in a 5% gum arabic solution was given orally one hour before the PAF administration.

Row | Structure (SMILES) | % Inhibition of PAF-induced bronchoconstriction
1 | CC1=C(C)C(=O)C(C(CCCCCC(N)=O)c2ccccc2)=C(C)C1=O (stereo not drawn) [compound 146, 7-(3,5,6-trimethyl-1,4-benzoquinon-2-yl)-7-phenylheptanamide] | 49.7%

same assay, conditions: 1.25 mg/kg oral, one hour before PAF

Row | Structure (SMILES) | % Inhibition of PAF-induced bronchoconstriction
2 | CC1=C(C)C(=O)C(C(CCCCCC(N)=O)c2ccccc2)=C(C)C1=O (stereo not drawn) [compound 146, 7-(3,5,6-trimethyl-1,4-benzoquinon-2-yl)-7-phenylheptanamide] | 80.3%

same assay, conditions: 5 mg/kg oral, one hour before PAF

Row | Structure (SMILES) | % Inhibition of PAF-induced bronchoconstriction
3 | CC1=C(C)C(=O)C(C(CCCCCC(N)=O)c2ccccc2)=C(C)C1=O (stereo not drawn) [compound 146, 7-(3,5,6-trimethyl-1,4-benzoquinon-2-yl)-7-phenylheptanamide] | 100.0%
4 | CC1=C(C)C(=O)C(C(CCCCCC(=O)N2CCN(CCc3ccccc3)CC2)c2ccccc2)=C(C)C1=O (stereo not drawn) [compound 163, 4-[7-(3,5,6-trimethyl-1,4-benzoquinon-2-yl)-7-phenylheptanoyl]-(2-phenylethyl)piperazine] | 59.9%

test system: Immunoglobulin-G1 mediated bronchoconstriction reaction; assay: Action on immunoglobulin-G1 mediated bronchoconstriction reaction in guinea pigs; type: in vivo, Hartley guinea pigs; conditions: Cavia porcellus; 20 mg/kg oral, 1 hour before antigen
Experimental: Action on the Immunoglobulin-G1 Mediated Bronchoconstriction Reaction in Guinea Pigs
In accordance with the method of Orange and Moore (Orange, R. P. and Moore E. G. , J. Immunol., 116, 392-397, 1976), female and male Hartley guinea pigs weighing about 350 g were sensitized by intraperitoneal application of an emulsion (1 ml) composed of egg albumin (1 mg) and Freund's complete adjuvant (produced by Wako Pure-Chemical Industries, Ltd. of Japan). 3 Weeks after the sensitization, a serum antibody level in the sensitized guinea pigs was measured by means of the 3-hours passive cutaneous anaphylaxis (PCA) reaction in guinea pigs. […] The broncoconstriction reaction resulting from the antigen-antibody reaction was measured in accordance with the Konzett-Rossler method (Konzett, H. and Rossler, R., Naunyn-Schmiedeberg'ss Arch. exp. Path. pharmak., 195, 71-74, 1940). The guinea pigs were fixed on the dorsal position under anesthesia with a urethane (1.5 g/kg given intraperitonealy). An incision was made through the trachea, which was connected to an artificial respirator (manufactured by Harvard Co.) through an endotracheal tube, with a side tube of the endotracheal tube being attached to a brochoconstricting transducer (type 7020, manufactured by Ugobasile Co.). While an air volume per ventilation was adjusted to 5 to 7 ml and an air ventilation rate was controlled at 70 times/min., with a load pressure to the lung set at 10 cm H2 O, the overflown air volume was recorded on Rectigraphy-8S (manufactured by Sanei Sokki Inc. of Japan) through a transducer. After 1 mg/kg of gallamine triethiodide was given intravenously to the animals, 1 mg/kg of antigen, egg albumin dissolved in physiological saline, was applied intravenously to induce a brochoconstriction reaction. The bronchconstriction reaction was recorded for the period of time of 15 minutes. A drug was suspended in 5% gum arabic solution, and given orally 1 hour before the application of the antigen. Percent inhibition of the immunoglobuin G1 mediated bronchoconstriction reaction in guinea pigs are shown below in Table 3.

Row | Structure (SMILES) | inhibition in vivo at 20 mg/kg
5 | CCCCCCC(C1=C(C)C(=O)C(C)=C(C)C1=O)c1ccccc1 (stereo not drawn) [compound 49] | 84%
6 | CC1=C(C)C(=O)C(C(CCCCCCC(=O)O)c2ccccc2)=C(C)C1=O (stereo not drawn) [Compound No. 9, 8-phenyl-8-(3,5,6-trimethyl-1,4-benzoquinon-2-yl)octanoic acid] | 71%
7 | CC1=C(C)C(=O)C(C(CCCCCCCO)c2ccc3c(c2)CCC3)=C(C)C1=O (stereo not drawn) [compound 76] | 89%
8 | CC1=C(C(CCCCCC(=O)O)c2ccc3ccccc3c2)C(=O)c2ccccc2C1=O (stereo not drawn) [compound 27] | 81%
9 | CC1=C(C(CCCCCC(=O)O)c2ccccc2)C(=O)c2ccccc2C1=O (stereo not drawn) [compound 86] | 80%
10 | CC1=C(C)C(=O)C(C(CCCCCCO)c2ccccc2)=C(C)C1=O (stereo not drawn) [Compound No. 45, 7-(3,5,6-trimethyl-1,4-benzoquinon-2-yl)-7-phenylheptanol] | 91%
11 | CC1=C(C)C(=O)C(C(CCCCCCOC(N)=O)c2ccccc2)=C(C)C1=O (stereo not drawn) [compound 59] | 83%
12 | CC1=C(C(CCCCCC(=O)O)c2ccc(F)cc2)C(=O)c2ccccc2C1=O (stereo not drawn) [compound 89] | 65%
13 | CC1=C(C(CCCCC(=O)O)c2ccccc2)C(=O)c2ccccc2C1=O (stereo not drawn) [Compound No. 12] | 78%
14 | CC1=C(C)C(=O)C(C(CCCCC(=O)O)c2ccccc2)=C(C)C1=O (stereo not drawn) [Compound No. 10] | 80%
15 | COc1ccc(C(CCCCCC(=O)O)C2=C(C)C(=O)c3ccccc3C2=O)cc1 (stereo not drawn) [compound 26] | 85%
16 | CC1=C(C(CCCCCCC(=O)O)c2ccc3c(c2)CCC3)C(=O)c2ccccc2C1=O (stereo not drawn) [compound 29] | 81%
17 | CC1=C(C(CCCCCCC(=O)O)c2ccccc2)C(=O)c2ccccc2C1=O (stereo not drawn) [Compound No. 14] | 78%
18 | CC1=C(C)C(=O)C(C(CCCCCCC(=O)O)c2ccc3c(c2)CCC3)=C(C)C1=O (stereo not drawn) [compound 25] | 83%
19 | CC1=C(C(CCCCCC(=O)O)c2ccc3c(c2)CCC3)C(=O)c2ccccc2C1=O (stereo not drawn) [compound 28] | 85%
20 | CC1=C(C(CCCC(=O)O)c2ccccc2)C(=O)c2ccccc2C1=O (stereo not drawn) [compound 38] | 73%

target: T1, 5-Lipoxygenase (Rattus norvegicus, UniProt P12527); assay: 5-Lipoxygenase inhibitory activity: 5-HETE production in RBL-1 cells (HPLC); type: cell-based, rat (RBL-1, rat basophilic leukemia cells); conditions: arachidonic acid + A 23187, 37° C., 20 minutes, read-out: 5-HETE production inhibiting effect (IC50)
T1 construct: endogenous in cells; host or cells: RBL-1 (rat basophilic leukemia cells)
T1 sequence (P12527 1-673): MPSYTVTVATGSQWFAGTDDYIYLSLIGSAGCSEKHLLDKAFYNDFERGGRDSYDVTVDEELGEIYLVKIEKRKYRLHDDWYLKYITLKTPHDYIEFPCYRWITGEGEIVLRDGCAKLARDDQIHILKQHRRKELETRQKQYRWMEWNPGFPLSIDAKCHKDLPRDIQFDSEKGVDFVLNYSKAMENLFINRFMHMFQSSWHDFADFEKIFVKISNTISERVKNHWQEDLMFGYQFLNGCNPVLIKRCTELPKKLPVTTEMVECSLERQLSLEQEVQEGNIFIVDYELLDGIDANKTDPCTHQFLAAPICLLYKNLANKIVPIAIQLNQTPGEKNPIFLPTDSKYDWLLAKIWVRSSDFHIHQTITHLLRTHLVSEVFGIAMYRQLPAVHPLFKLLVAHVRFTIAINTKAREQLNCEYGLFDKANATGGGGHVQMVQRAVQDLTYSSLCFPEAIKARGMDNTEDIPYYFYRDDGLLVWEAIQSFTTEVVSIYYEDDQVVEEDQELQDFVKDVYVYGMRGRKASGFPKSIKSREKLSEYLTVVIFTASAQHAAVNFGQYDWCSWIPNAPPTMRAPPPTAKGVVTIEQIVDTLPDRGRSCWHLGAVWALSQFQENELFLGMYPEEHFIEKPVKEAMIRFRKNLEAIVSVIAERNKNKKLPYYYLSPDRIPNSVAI
Experimental: 5-Lipoxygenase Inhibitory Activity
10^7 RBL-1 cells (rat basophilic leukemia cells) were suspended in 0.5 ml of MCM (mast cell medium), and test solutions (made up of 0.5 ml of MCM, 50 μg of arachidonic acid, 10 μg of A 23187 (calcium ionophore, Eli Lilly) and 1 μM, 0.1 μM, 0.01 μM and0.001 μM as the final concentration of the quinone compound, respectively) prepared previously were added respectively to the suspension, followed by reaction at 37° C. for 20 minutes. After the conclusion of the reaction, 4 ml of ethanol and 1,4-dimethoxy-2-methyl-3-(3-methoxypropyl)naphthalene as the internal reference drug were added to the reaction solution, and the mixture was shaken thoroughly and allowed to stand at room temperature for 10 minutes. Then, it was centrifuged (2000 r.p.m.) for 10 minutes, and the supernatant fluid was separated and concentrated to dryness under reduced pressure. 0.5 Milliliter of 60% aqueous methanol was added to the concentrate, and 100 μl of the resulting solution was taken and subjected to high-performance liquid chromatography to determine amount of 5-HETE (5-hydroxyeicosatetraenoic acid). Determination of 5-HETE was made through measurement of an absorption at 237 nm with a UV absorption monitor.
The 5-HETE production inhibitory effect (IE) was expressed by [formula] wherein a is a peak height or peak area corrected by the peak for the internal reference when the quinone compound is not contained; b is a peak height or peak area corrected by the peak for the internal reference when the quinone compound is contained.

Row | IC50 | Structure (SMILES)
21 | 80 nM | CC1=C(C(CCCCC(=O)O)c2cccs2)C(=O)c2ccccc2C1=O (stereo not drawn) [Compound No. 13]
22 | 30 nM | CCOC(=O)CCCCC(C1=C(C)C(=O)c2ccccc2C1=O)c1ccccc1 (stereo not drawn) [Compound No. 5]
23 | 32 nM | CC1=C(C)C(=O)C(C(CCCCCCC(=O)O)c2ccccc2)=C(C)C1=O (stereo not drawn) [Compound No. 9, 8-phenyl-8-(3,5,6-trimethyl-1,4-benzoquinon-2-yl)octanoic acid]
24 | 62 nM | COC1=C(OC)C(=O)C(C(CCCCCCO)c2ccccc2)=C(C)C1=O (stereo not drawn) [Compound No. 56, 7-(5,6-dimethoxy-3-methyl-1,4-benzoquinon-2-yl)-7-phenylheptanol]
25 | 32 nM | COC1=C(OC)C(=O)C(C(CCCCC(=O)O)c2ccccc2)=C(C)C1=O (stereo not drawn) [compound 16]
26 | 1300 nM | COC1=C(OC)C(=O)C(C(CCC(=O)O)c2ccccc2)=C(C)C1=O (stereo not drawn) [Compound No. 39]
27 | 200 nM | COC1=C(OC)C(=O)C(C(CCCCC(=O)O)c2cccs2)=C(C)C1=O (stereo not drawn) [compound 17]
28 | 28 nM | CC1=C(C)C(=O)C(C(CCCCCCO)c2ccccc2)=C(C)C1=O (stereo not drawn) [Compound No. 45, 7-(3,5,6-trimethyl-1,4-benzoquinon-2-yl)-7-phenylheptanol]
29 | 60 nM | CCOC(=O)CCCCC(C1=C(C)C(=O)c2ccccc2C1=O)c1cccs1 (stereo not drawn) [Compound No. 3]
30 | 440 nM | CC1=C(C)C(=O)C(C(CCC(=O)O)c2ccccc2)=C(C)C1=O (stereo not drawn) [Compound No. 35, 4-(3,5,6-trimethyl-1,4-benzoquinon-2-yl)-4-phenylbutyric acid]
31 | 200 nM | COC1=C(OC)C(=O)C(C(CCCCCCC(=O)O)c2ccccc2)=C(C)C1=O (stereo not drawn) [compound 18]
32 | 28 nM | CCOC(=O)CCCCC(C1=C(C)C(=O)C(OC)=C(OC)C1=O)c1cccs1 (stereo not drawn) [Compound No. 6]
33 | 34 nM | CC1=C(C)C(=O)C(C(CCCCC(=O)O)c2ccccc2)=C(C)C1=O (stereo not drawn) [Compound No. 10]
34 | 730 nM | CC1=C(C)C(=O)C(C(CCCO)c2ccccc2)=C(C)C1=O (stereo not drawn) [compound 46]
35 | 50 nM | CC1=C(C(CCCCCCCCC(=O)O)c2ccccc2)C(=O)c2ccccc2C1=O (stereo not drawn) [compound 15]
36 | 80 nM | CCOC(=O)CCCCC(C1=C(C)C(=O)C(C)=C(C)C1=O)c1cccs1 (stereo not drawn) [Compound No. 1, ethyl 6-(3,5,6-trimethyl-1,4-benzoquinon-2-yl)-6-(2-thienyl)hexanoate]
37 | 200 nM | CC1=C(C(CCCCCCC(=O)O)c2ccccc2)C(=O)c2ccccc2C1=O (stereo not drawn) [Compound No. 14]
38 | 34 nM | CC1=C(C)C(=O)C(C(CCCCCCCCC(=O)O)c2ccccc2)=C(C)C1=O (stereo not drawn) [Compound No. 11]
39 | 140 nM | CCOC(=O)CCCCC(C1=C(C)C(=O)C(OC)=C(OC)C1=O)c1ccccc1 (stereo not drawn) [Compound No. 7]
